Reference: patent US7195918B2 (priority 2003, dated 2007)

What was measured:
A. succinogenes 130Z = assay: Antibiotic minimum inhibitory concentrations: growth of A. succinogenes 130Z in liquid medium A with antibiotics; type: cell-based, Actinobacillus succinogenes; settings: 37° C.; for antibiotic concentration in whose presence no growth was detected / antibiotic concentration in whose presence very slow growth was observed / antibiotic concentration in whose presence A. succinogenes 130Z grew perfectly well: 7 days, OD660; for OD660 after 7 days culture: 5 μg/ml antibiotic
Method: Antibiotic minimum inhibitory concentrations. To determine the sensitivity of A. succinogenes 130Z to antibiotics, the growth of A. succinogenes 130Z was tested in medium A (liquid medium) containing a series of antibiotics commonly used in bacteriology. One ml of 130Z preculture was inoculated into 9 ml of medium A containing each antibiotic and incubated at 37° C. for 7 days. Cell growth was followed by measuring OD660.
Resistance of A. succinogenes to antibiotics. A. succinogenes 130Z grew perfectly well in the presence of 50 μg/ml kanamycin or 30 μg/ml streptomycin. […] No growth was detected in the presence of 10 μg/ml ampicillin, 1 μg/ml chloramphenicol, 5 μg/ml tetracycline, or 10 μg/ml erythromycin. A. succinogenes is sensitive to low concentrations of ampicillin, chloramphenicol, erythromycin, and tetracycline, so the corresponding resistance genes (i.e., Amp^R, Cm^R, Tet^R, and Ery^R) could be used as selection markers on plasmids used to transform A. succinogenes. We discovered that the Tn3 Amp^R gene carried by pGZRS-19 is naturally expressed in A. succinogenes.

[1] = system: A. succinogenes 130Z cells harboring pLGZ921 and pLGZ922; assay: Growth of plasmid-harboring A. succinogenes 130Z on TS-agar plates with tetracycline or chloramphenicol; type: cell-based, Actinobacillus succinogenes
Description: Expression of Tet^R and Cm^R in A. succinogenes. We need several markers to conveniently engineer A. succinogenes. One can be used to label a gene deletion, while another one can be used to select for the maintenance of a recombinant gene on a plasmid replicon. To determine whether, once expressed, Cm^R and Tet^R could be used as selective markers in A. succinogenes, the Tn9 Cm^R and Tn10 Tet^R genes were cloned into pLGZ920 under control of the A. succinogenes pckA promoter, yielding plasmids pLGZ921 and pLGZ922, respectively. After electroporation, A. succinogenes 130Z cells harboring pLGZ921 and pLGZ922 were spread on TS-agar (30 g/l TS, 10 g/l glucose) plates containing variable amounts of tetracycline and chloramphenicol (FIG. 9). Strains […] plated on chloramphenicol plates and […] plated on tetracycline plates were used as the negative controls. […] In contrast, strain […] grew on plates containing up to 5.0 μg/ml tetracycline. Chloramphenicol-sensitive 130Z(pLGZ921) strain grew on plates containing up to 0.4 μg/ml […], but not on plates containing higher chloramphenicol concentrations. Strain […] grew on plates containing up to 5.0 μg/ml chloramphenicol.

Row | Structure (SMILES) | antibiotic concentration in whose presence no growth was detected (A. succinogenes 130Z) [µg/mL] | antibiotic concentration up to which strain 130Z(pLGZ922) grew on plates [1] | OD660 after 7 days culture (A. succinogenes 130Z) | antibiotic concentration in whose presence very slow growth was observed (A. succinogenes 130Z) [µg/mL] | antibiotic concentration in whose presence A. succinogenes 130Z grew perfectly well (A. succinogenes 130Z) [µg/mL]
1 | CN(C)[C@@H]1C(O)=C(C(N)=O)C(=O)[C@@]2(O)C(O)=C3C(=O)c4c(O)cccc4[C@@](C)(O)[C@H]3C[C@@H]12 [tetracycline] | 5 | up to 1.0 μg/ml |  |  | 
2 | CC[C@H]1OC(=O)[C@H](C)[C@@H](O[C@H]2C[C@@](C)(OC)[C@@H](O)[C@H](C)O2)[C@H](C)[C@@H](O[C@@H]2O[C@H](C)C[C@H](N(C)C)[C@H]2O)[C@](C)(O)C[C@@H](C)C(=O)[C@H](C)[C@@H](O)[C@]1(C)O [erythromycin] | 10 |  | approximately 0.05 | 5 | 
3 | CC1(C)S[C@@H]2[C@H](NC(=O)[C@H](N)c3ccccc3)C(=O)N2[C@H]1C(=O)O [ampicillin] | 10 |  | approximately 0.05 | 5 | 
4 | NC[C@H]1O[C@H](O[C@H]2[C@H](O)[C@@H](O[C@H]3O[C@H](CO)[C@@H](O)[C@H](N)[C@H]3O)[C@H](N)C[C@@H]2N)[C@H](O)[C@@H](O)[C@@H]1O [kanamycin] |  |  |  |  | 50
5 | [H]/N=C(/N)N[C@H]1[C@H](O)[C@@H](O)[C@H](O[C@@H]2O[C@@H](C)[C@](O)(C=O)[C@H]2O[C@@H]2O[C@@H](CO)[C@H](O)[C@@H](O)[C@@H]2NC)[C@@H](N/C(N)=N\[H])[C@@H]1O [streptomycin] |  |  |  |  | 30
6 | O=C(N[C@H](CO)[C@H](O)c1ccc([N+](=O)[O-])cc1)C(Cl)Cl [chloramphenicol] | 1 |  |  |  | 
